Assay results taken from ChEMBL document CHEMBL1139930, “Solvatochromism, DNA binding, antitumor activity and molecular modeling study of mixed-ligand copper(II) complexes containing the bulky ligand: bis[N-(p-tolyl)imino]acenaphthene” (Eur J Med Chem, 2007).
≈ marks a conversion by molar mass, not a printed value.

Columns and labels:
Ehrlich [1] = experiment: Antitumor activity against Ehrlich ascites carcinoma cells in mouse assessed as cell viability at 20 mg/kg after 5 days; assay type: functional
Ehrlich [2] = experiment: Antitumor activity against Ehrlich ascites carcinoma cells in mouse assessed as WBC count at 20 mg/kg after 14 days; assay type: functional
Ehrlich [3] = experiment: Antitumor activity against Ehrlich ascites carcinoma cells in mouse assessed as increase in life span at 20 mg/kg relative to control; assay type: functional
Ehrlich [4] = experiment: Antitumor activity against Ehrlich ascites carcinoma cells in mouse assessed as haemoglobin level at 20 mg/kg after 14 days; assay type: functional
Ehrlich [5] = experiment: Antitumor activity against Ehrlich ascites carcinoma cells in mouse assessed as RBC count at 20 mg/kg after 14 days; assay type: functional
[6] = Displacement of methyl green from DNA; set-up: species or system Homo sapiens

SMILES | Activity (Ehrlich [1]) | Activity (Ehrlich [2]) | Activity (Ehrlich [3]) [%] | Activity (Ehrlich [4]) [%] | Activity (Ehrlich [5]) | IC50 [6] [µg/mL]
O=c1[nH]cc(F)c(=O)[nH]1 [FLUOROURACIL] | 83.6 10^6/100microL | 14.7 /10^3mm3 | 42.8 | 15.6 | 5.87 /10^6mm3 | 
COc1cccc2c1C(=O)c1c(O)c3c(c(O)c1C2=O)C[C@@](O)(C(C)=O)C[C@@H]3O[C@H]1C[C@H](N)[C@H](O)[C@H](C)O1 [DAUNORUBICIN] |  |  |  |  |  | 28 (≈ 53.1 µM)
